Assays:
Format in all cases: biochemical
[1] = target: T1, purified recombinant human TG2 (tissue transglutaminase) (Homo sapiens, UniProt P21980); test: TG2 transamidation activity, biotin X-cadaverine incorporation into N,N′-dimethylcasein (Example 2); details: recombinant human TG2 400 ng/ml, 2 h at 37° C.
T1 construct: purchased Zedira, Germany
T1 sequence (P21980 1-687): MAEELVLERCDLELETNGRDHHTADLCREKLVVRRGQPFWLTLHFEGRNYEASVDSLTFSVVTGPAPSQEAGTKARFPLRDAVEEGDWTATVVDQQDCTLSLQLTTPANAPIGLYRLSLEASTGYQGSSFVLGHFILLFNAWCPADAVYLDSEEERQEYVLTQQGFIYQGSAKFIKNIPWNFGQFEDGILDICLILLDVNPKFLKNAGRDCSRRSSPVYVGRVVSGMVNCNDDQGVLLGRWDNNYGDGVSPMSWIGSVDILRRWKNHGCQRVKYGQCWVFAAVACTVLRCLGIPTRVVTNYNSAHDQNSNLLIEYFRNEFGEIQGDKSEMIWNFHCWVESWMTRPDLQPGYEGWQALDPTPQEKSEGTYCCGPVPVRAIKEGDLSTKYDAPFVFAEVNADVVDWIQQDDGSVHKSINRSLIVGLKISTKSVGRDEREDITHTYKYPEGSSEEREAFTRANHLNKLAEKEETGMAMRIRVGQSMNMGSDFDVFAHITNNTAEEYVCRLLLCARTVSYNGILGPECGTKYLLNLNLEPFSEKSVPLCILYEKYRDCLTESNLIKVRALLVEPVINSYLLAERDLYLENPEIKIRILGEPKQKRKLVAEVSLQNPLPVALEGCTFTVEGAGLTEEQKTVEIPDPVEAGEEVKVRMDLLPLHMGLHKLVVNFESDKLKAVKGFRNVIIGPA
Description: TG transamidation activity and the affect of inhibitors on activity was measured by biotin X-cadaverine incorporation into N,N′-dimethylcasein. After coating 96 well plates with 100 μl of 10 mg/ml N,N′-dimethylcasein in 50 mM Tris-Cl, pH8 at 4° C. over night, plates were washed with TBS-0.05% Tween-20(v/v), pH 7.6 and TBS, pH 7.6, and 100 μl purified recombinant human TG2 (400 ng/ml Zedira, Germany) (tissue transglutaminase) in 50 mM Tris-HCl, pH7.4, containing 1 mM DTT, 10 mM CaCl2 and 0.1 μM biotin-cadaverine added into the coated wells containing the appropriate concentration of inhibitor. The reaction was allowed to proceed for 2 h at 37° C. The plate was then washed twice with TBS-Tween-20 (v/v), pH 7.6 and once with TBS, pH 7.6 before being blocked with 100 μl of blocking buffer (3% (w/v) BSA in TBS-Tween, pH 7.6) for 30 min at 37° C. After blocking, the wells were incubated with 100 μl HRP-conjugated Extr-Avidin peroxidase (Sigma-Aldrich, UK) in blocking buffer (1:1,000 dilution) for 1 h at 37° C. After another set of washes, TG2 activity was measured using Sigma Fast OPD, tablets dissolved in 20 ml of distilled H2O. The colour was developed by adding 2.5 M H2SO4 and the absorbance at 490 nm measured using a microplate reader ELx808™. All inhibitors were dissolved in DMSO as a 100 mM solution prior to addition to the assay.

[2] = target: T2, purified recombinant human TG2 (Homo sapiens, UniProt P21980); test: Selectivity assay, TG2, biotin X-cadaverine incorporation into N,N′-dimethylcasein (Example 4); details: recombinant human TG2 2 μg/ml, 1 h at 37° C.; errors are SD
T2 construct: purchased Zedira, Germany
T2 sequence (P21980 1-687): T1 sequence (P21980 1-687)
Description: (§1) TG transamidation activity and the effect of inhibitors on activity was measured by biotin X-cadaverine incorporation into N,N′-dimethylcasein. After coating 96 well plates with 100 μl of 10 mg/ml N,N′-dimethylcasein in 50 mM Tris-Cl, pH8 at 4° C. over night, plates were washed with TBS-0.05% Tween-20(v/v), pH 7.6 and TBS, pH 7.6, and either 100 μl purified recombinant human TG2 (2 μg/ml Zedira, Germany) or 100 μl purified recombinant human FXIIIa (2 μg/ml Zedira, Germany, preactivated by incubation with 0.01 U bovine thrombin/μg FXIII at room temperature for 30 minutes) in 50 mM Tris-HCl, pH7.4, containing 1 mM DTT, 10 mM CaCl2 and 0.1 μM biotin-cadaverine added into the coated wells containing the appropriate concentration of inhibitor. The reaction was allowed to proceed for 1 h at 37° C. The plate was then washed twice with TBS-Tween-20 (v/v), pH 7.6 and once with TBS, pH 7.6 before being blocked with 100 μl of blocking buffer (3% (w/v) BSA in TBS-Tween, pH 7.6) for 30 min at 37° C. After blocking, the wells were incubated with 100 μl HRP-conjugated ExtrAvidin peroxidase (Sigma-Aldrich, UK) in blocking buffer (1:1,000 dilution) for 1 h at 37° C. After another set of washes, TG2 activity was measured using Sigma Fast OPD, tablets dissolved in 20 ml of distilled H2O. The colour was developed by adding 2.5M H2SO4 and the absorbance at 490 nm measured using a microplate reader ELx808™. All inhibitors were dissolved in DMSO as a 100 mM solution prior to addition to the assay.

[3] = target: T3, purified recombinant human FXIIIa (Homo sapiens, UniProt P00488); test: Selectivity assay, FXIIIa, biotin X-cadaverine incorporation into N,N′-dimethylcasein (Example 4); details: recombinant human FXIIIa 2 μg/ml, thrombin preactivated, 1 h at 37° C.; errors are SD; read-out: FACTOR XIII IC50
T3 construct: purchased Zedira, Germany
T3 sequence (P00488 39-732 limits assumed): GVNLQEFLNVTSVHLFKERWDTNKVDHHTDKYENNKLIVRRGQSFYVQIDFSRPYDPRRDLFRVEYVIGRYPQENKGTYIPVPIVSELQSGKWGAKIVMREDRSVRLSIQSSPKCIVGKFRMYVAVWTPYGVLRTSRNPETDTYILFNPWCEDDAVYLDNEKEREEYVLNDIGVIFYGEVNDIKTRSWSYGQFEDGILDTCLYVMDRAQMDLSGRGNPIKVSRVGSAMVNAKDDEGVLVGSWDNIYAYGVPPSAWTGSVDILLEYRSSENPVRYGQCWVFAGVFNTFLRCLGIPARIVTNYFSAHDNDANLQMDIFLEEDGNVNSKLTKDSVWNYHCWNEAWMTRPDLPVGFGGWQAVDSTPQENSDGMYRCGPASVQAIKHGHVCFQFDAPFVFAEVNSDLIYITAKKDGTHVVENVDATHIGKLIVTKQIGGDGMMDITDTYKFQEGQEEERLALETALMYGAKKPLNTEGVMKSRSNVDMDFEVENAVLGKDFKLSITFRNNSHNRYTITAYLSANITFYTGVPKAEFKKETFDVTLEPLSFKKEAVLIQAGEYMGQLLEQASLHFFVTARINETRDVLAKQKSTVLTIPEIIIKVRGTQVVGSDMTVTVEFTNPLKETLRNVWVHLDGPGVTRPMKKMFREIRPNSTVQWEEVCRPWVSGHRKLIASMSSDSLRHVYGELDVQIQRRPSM
Description: as §1

Compound | IC50 [1] [µM] | IC50 [2] [µM] | IC50 [3] [µM]
C=CC(=O)N[C@H](Cc1ccccc1)C(=O)N1CCN(C(=O)OCc2ccccc2)CC1 [EB 1-131] | > 100 | > 500 | 13.5 ± 4.9
C[S+](C)CC(=O)N[C@@H](Cc1ccccc1)C(=O)N1CCN(C(=O)OCc2ccccc2)CC1 [EB 1-126] | > 100 | > 500 | 15.5 ± 6.3
C[S+](C)CC(=O)N[C@H](Cc1ccccc1)C(=O)N1CCN(C(=O)OCc2ccccc2)CC1 [EB 1-127] | > 100 | > 500 | 23.3 ± 5.5
